# Data: PMC5218480 (PLoS ONE, 2017)
# Tested on: MV-4-11 cells
# Test: Gene expression microarray analysis (Affymetrix PrimeView) and GSEA
# Assay type: cell-based, human
# Set-up: RFU PODN (11730768_x_at) / Fold change /veh PODN (11730768_x_at) / RFU LINC00158 (11744669_a_at) / Fold change /veh LINC00158 (11744669_a_at) / RFU DUSP10 (11751237_a_at) / Fold change /veh DUSP10 (11751237_a_at) / RFU ID3 (11757404_x_at) / Fold change /veh ID3 (11757404_x_at) / RFU PLEKHG5 (11737974_s_at) / Fold change /veh PLEKHG5 (11737974_s_at) / RFU LRRC4B (11730491_at) / Fold change /veh LRRC4B (11730491_at) / RFU GIMAP4 (11747438_a_at) / Fold change /veh GIMAP4 (11747438_a_at) / RFU KRT8 (11758183_x_at) / Fold change /veh KRT8 (11758183_x_at) / RFU CNN1 (11734310_a_at) / Fold change /veh CNN1 (11734310_a_at) / RFU VPS37D (11726825_at) / Fold change /veh VPS37D (11726825_at) / RFU C10orf10 (11716522_x_at) / Fold change /veh C10orf10 (11716522_x_at) / RFU KIR2DL2 /// KIR2DL4 /// KIR2DL5A /// KIR2DL5B /// KIR2DS1 /// KIR2DS2 /// KIR2DS3 /// KIR2DS4 /// KIR3DL3 /// KIR3DL3 /// KIR3DS1 (11738374_at) / Fold change /veh KIR2DL2 /// KIR2DL4 /// KIR2DL5A /// KIR2DL5B /// KIR2DS1 /// KIR2DS2 /// KIR2DS3 /// KIR2DS4 /// KIR3DL3 /// KIR3DL3 /// KIR3DS1 (11738374_at) / RFU C1QL1 (11718748_at) / Fold change /veh C1QL1 (11718748_at) / RFU TMPRSS4 (11747572_a_at) / Fold change /veh TMPRSS4 (11747572_a_at) / RFU HAMP (11756126_x_at) / Fold change /veh HAMP (11756126_x_at) / RFU RNFT2 (11725882_a_at) / Fold change /veh RNFT2 (11725882_a_at) / RFU NR4A2 (11747474_a_at) / Fold change /veh NR4A2 (11747474_a_at) / RFU ABCC12 (11746883_a_at) / Fold change /veh ABCC12 (11746883_a_at) / RFU TMEM136 (11760407_x_at) / Fold change /veh TMEM136 (11760407_x_at) / RFU CLDN22 /// WWC2 (11732394_at) / Fold change /veh CLDN22 /// WWC2 (11732394_at) / RFU HLA-DPB1 (11760878_x_at) / Fold change /veh HLA-DPB1 (11760878_x_at) / RFU SPINT1 (11716480_a_at) / Fold change /veh SPINT1 (11716480_a_at) / RFU GAP43 (11754022_s_at) / Fold change /veh GAP43 (11754022_s_at) / RFU A4GNT (11735810_at) / Fold change /veh A4GNT (11735810_at) / RFU PRB3 (11715151_x_at) / Fold change /veh PRB3 (11715151_x_at) / RFU TUBB4B (11761932_at) / Fold change /veh TUBB4B (11761932_at) / RFU CAPN14 (11732068_a_at) / Fold change /veh CAPN14 (11732068_a_at) / RFU TMCC2 (11721928_a_at) / Fold change /veh TMCC2 (11721928_a_at) / RFU IRGQ (11745062_a_at) / Fold change /veh IRGQ (11745062_a_at) / RFU FAM174B (11720279_a_at) / Fold change /veh FAM174B (11720279_a_at) / RFU TMPRSS4 (11748680_a_at) / Fold change /veh TMPRSS4 (11748680_a_at) / RFU FAM212B (11763350_a_at) / Fold change /veh FAM212B (11763350_a_at) / RFU PLEKHG5 (11743358_a_at) / Fold change /veh PLEKHG5 (11743358_a_at) / RFU ZSCAN30 (11745921_a_at) / Fold change /veh ZSCAN30 (11745921_a_at) / RFU CMKLR1 (11741424_a_at) / Fold change /veh CMKLR1 (11741424_a_at) / RFU LOC101060620 /// MAPK8IP1 (11723275_at) / Fold change /veh LOC101060620 /// MAPK8IP1 (11723275_at) / RFU SPTSSB (11747773_x_at) / Fold change /veh SPTSSB (11747773_x_at) / RFU PRSS12 (11739890_at) / Fold change /veh PRSS12 (11739890_at) / RFU BIN1 (11741810_x_at) / Fold change /veh BIN1 (11741810_x_at) / RFU WNT11 (11732464_a_at) / Fold change /veh WNT11 (11732464_a_at) / RFU C10orf10 (11716521_a_at) / Fold change /veh C10orf10 (11716521_a_at) / RFU C5orf56 (11738089_at) / Fold change /veh C5orf56 (11738089_at) / RFU CYB561 (11721691_x_at) / Fold change /veh CYB561 (11721691_x_at) / RFU ANKRD19P (11752326_a_at) / Fold change /veh ANKRD19P (11752326_a_at) / RFU OR2T12 /// OR2T33 /// OR2T8 (11738714_s_at) / Fold change /veh OR2T12 /// OR2T33 /// OR2T8 (11738714_s_at) / RFU VCAN (11748164_a_at) / Fold change /veh VCAN (11748164_a_at) / RFU JSRP1 (11732532_at) / Fold change /veh JSRP1 (11732532_at) / RFU KRTAP10-11 (11738290_x_at) / Fold change /veh KRTAP10-11 (11738290_x_at) / RFU MYO3A (11730013_a_at) / Fold change /veh MYO3A (11730013_a_at) / RFU EBF3 (11725865_a_at) / Fold change /veh EBF3 (11725865_a_at) / RFU CAMK2N1 (11719241_x_at) / Fold change /veh CAMK2N1 (11719241_x_at) / RFU C5orf56 (11738088_a_at) / Fold change /veh C5orf56 (11738088_a_at) / RFU OLFML3 (11715873_a_at) / Fold change /veh OLFML3 (11715873_a_at) / RFU LOC100653217 /// NTM (11731650_a_at) / Fold change /veh LOC100653217 /// NTM (11731650_a_at) / RFU MAPK11 (11762145_a_at) / Fold change /veh MAPK11 (11762145_a_at) / RFU FIZ1 (11724087_x_at) / Fold change /veh FIZ1 (11724087_x_at) / RFU OASL (11726364_x_at) / Fold change /veh OASL (11726364_x_at) / RFU SOX15 (11748057_x_at) / Fold change /veh SOX15 (11748057_x_at) / RFU CD79A (11719716_a_at) / Fold change /veh CD79A (11719716_a_at) / RFU HIST1H1D (11736915_at) / Fold change /veh HIST1H1D (11736915_at) / RFU CASKIN2 (11723855_a_at) / Fold change /veh CASKIN2 (11723855_a_at) / RFU LOC730098 (11760151_x_at) / Fold change /veh LOC730098 (11760151_x_at) / RFU OR4N2 (11742367_at) / Fold change /veh OR4N2 (11742367_at) / RFU PRRT2 (11749266_a_at) / Fold change /veh PRRT2 (11749266_a_at) / RFU SNX32 (11753110_a_at) / Fold change /veh SNX32 (11753110_a_at) / RFU CDHR5 (11726645_a_at) / Fold change /veh CDHR5 (11726645_a_at) / RFU RCAN1 (11760418_a_at) / Fold change /veh RCAN1 (11760418_a_at) / RFU FAM167A (11723789_a_at) / Fold change /veh FAM167A (11723789_a_at) / RFU FAM26E (11764081_at) / Fold change /veh FAM26E (11764081_at) / RFU ISYNA1 (11749810_s_at) / Fold change /veh ISYNA1 (11749810_s_at) / RFU ACY1 (11761880_at) / Fold change /veh ACY1 (11761880_at) / RFU 11764098_at / Fold change /veh 11764098_at / RFU SAMD14 (11745864_x_at) / Fold change /veh SAMD14 (11745864_x_at) / RFU NPB (11741838_a_at) / Fold change /veh NPB (11741838_a_at) / RFU TMPRSS6 (11731388_a_at) / Fold change /veh TMPRSS6 (11731388_a_at) / RFU KRTAP10-2 (11738614_at) / Fold change /veh KRTAP10-2 (11738614_at) / RFU ARHGAP8 /// PRR5-ARHGAP8 (11727945_x_at) / Fold change /veh ARHGAP8 /// PRR5-ARHGAP8 (11727945_x_at) / RFU KRTAP5-7 /// NADSYN1 (11734609_at) / Fold change /veh KRTAP5-7 /// NADSYN1 (11734609_at) / RFU RASL12 (11751679_a_at) / Fold change /veh RASL12 (11751679_a_at) / RFU CDKN2B (11736163_a_at) / Fold change /veh CDKN2B (11736163_a_at) / RFU PRF1 (11729649_at) / Fold change /veh PRF1 (11729649_at) / RFU, ZNF638 /// ZNF638-IT1 / Fold change vs veh, ZNF638 /// ZNF638-IT1 / RFU, PANK3 / Fold change vs veh, PANK3 / RFU, SH3YL1 / Fold change vs veh, SH3YL1 / RFU, ZEB2 / Fold change vs veh, ZEB2 / RFU, NRIP1 / Fold change vs veh, NRIP1 / RFU, PTTG1IP / Fold change vs veh, PTTG1IP / RFU, CAPN2 / Fold change vs veh, CAPN2 / RFU, MED14 / Fold change vs veh, MED14 / RFU, SNORA58 / Fold change vs veh, SNORA58 / RFU, C1orf63 / Fold change vs veh, C1orf63 / RFU, LRRFIP1 / Fold change vs veh, LRRFIP1 / RFU, NDUFAF7 / Fold change vs veh, NDUFAF7 / RFU, SLC12A2 / Fold change vs veh, SLC12A2 / RFU, IBTK / Fold change vs veh, IBTK / RFU, ESF1 / Fold change vs veh, ESF1 / Fold change vs veh, TMEM50B / RFU, TAOK1 / Fold change vs veh, TAOK1 / RFU, ACBD3 / Fold change vs veh, ACBD3 / RFU, TMA16 / Fold change vs veh, TMA16 / RFU, RWDD3 / Fold change vs veh, RWDD3 / RFU, BCAT1 / Fold change vs veh, BCAT1 / RFU, EDEM3 / Fold change vs veh, EDEM3 / RFU, TMEM33 / Fold change vs veh, TMEM33 / RFU, WDR75 / Fold change vs veh, WDR75 / RFU, AHCTF1 / Fold change vs veh, AHCTF1 / RFU, TFRC / Fold change vs veh, TFRC / RFU, ZDHHC17 / Fold change vs veh, ZDHHC17 / RFU, NOM1 / Fold change vs veh, NOM1 / RFU, ARL8B / Fold change vs veh, ARL8B / RFU, ZBTB11 / Fold change vs veh, ZBTB11 / RFU, TAMM41 / Fold change vs veh, TAMM41 / RFU, KIAA1704 /// LOC100996395 / Fold change vs veh, KIAA1704 /// LOC100996395 / RFU, ING1 / Fold change vs veh, ING1 / RFU, TRMT61B / Fold change vs veh, TRMT61B / RFU, FUBP3 / Fold change vs veh, FUBP3 / RFU, TP53 / Fold change vs veh, TP53 / RFU, TNKS2 / Fold change vs veh, TNKS2 / RFU, ZFP14 / Fold change vs veh, ZFP14 / RFU, ACTR2 / Fold change vs veh, ACTR2 / RFU, PPP3R1 / Fold change vs veh, PPP3R1 / RFU, PIK3R1 / Fold change vs veh, PIK3R1 / RFU, HNRNPA1 / Fold change vs veh, HNRNPA1 / RFU, RNF170 / Fold change vs veh, RNF170 / RFU, ZNF28 / Fold change vs veh, ZNF28 / RFU, RNGTT / Fold change vs veh, RNGTT / RFU, OGT / Fold change vs veh, OGT / RFU, BRD1 / Fold change vs veh, BRD1 / RFU, MARS / Fold change vs veh, MARS / RFU, ZNF655 / Fold change vs veh, ZNF655 / RFU, FAHD1 / Fold change vs veh, FAHD1 / RFU, BDP1 / Fold change vs veh, BDP1 / RFU, LRRCC1 / Fold change vs veh, LRRCC1 / RFU, ARID1A / Fold change vs veh, ARID1A / RFU, ZNF146 / Fold change vs veh, ZNF146 / RFU, ZNF330 / Fold change vs veh, ZNF330 / RFU, GPN3 / Fold change vs veh, GPN3 / RFU, C9orf123 / Fold change vs veh, C9orf123 / RFU, N4BP2L2 / Fold change vs veh, N4BP2L2 / RFU, ARFIP1 / Fold change vs veh, ARFIP1 / RFU, FAM179B / Fold change vs veh, FAM179B / RFU, BCL10 / Fold change vs veh, BCL10 / RFU, UHRF1BP1L / Fold change vs veh, UHRF1BP1L / RFU, BET1 / Fold change vs veh, BET1 / RFU, CNOT2 / Fold change vs veh, CNOT2 / RFU, ZNF268 / Fold change vs veh, ZNF268 / Fold change vs veh, ZNF507 / RFU, DGCR2 / Fold change vs veh, DGCR2 / RFU, WDSUB1 / Fold change vs veh, WDSUB1 / Fold change vs veh, HSP90B1 /// MIR3652 / RFU, ADSS / Fold change vs veh, ADSS / RFU, GK / Fold change vs veh, GK / RFU, ZNF148 / Fold change vs veh, ZNF148 / RFU, TAF9 / Fold change vs veh, TAF9 / RFU, SLC1A5 / Fold change vs veh, SLC1A5 / RFU, SLMO2 / Fold change vs veh, SLMO2 / RFU, ABCC4 / Fold change vs veh, ABCC4 / RFU, LOC101060439 /// RAP1B / Fold change vs veh, LOC101060439 /// RAP1B / RFU, RFX7 / Fold change vs veh, RFX7 / RFU, GTPBP10 / Fold change vs veh, GTPBP10 / RFU, CNEP1R1 / Fold change vs veh, CNEP1R1 / RFU, BIVM-ERCC5 /// ERCC5 / Fold change vs veh, BIVM-ERCC5 /// ERCC5 / RFU, ILF3 / Fold change vs veh, ILF3 / RFU 11762660_at / Fold change /veh 11762660_at / RFU VCAN (11757783_s_at) / Fold change /veh VCAN (11757783_s_at) / RFU DDX43 (11728927_at) / Fold change /veh DDX43 (11728927_at) / RFU KRT8 (11758188_x_at) / Fold change /veh KRT8 (11758188_x_at) / RFU NKD1 (11759106_at) / Fold change /veh NKD1 (11759106_at) / RFU SRD5A1 (11742802_a_at) / Fold change /veh SRD5A1 (11742802_a_at) / RFU TPSAB1 /// TPSB2 (11721975_s_at) / Fold change /veh TPSAB1 /// TPSB2 (11721975_s_at) / RFU GSTM3 (11746129_a_at) / Fold change /veh GSTM3 (11746129_a_at) / RFU IL23R (11737362_x_at) / Fold change /veh IL23R (11737362_x_at) / RFU TMEM51 (11727254_a_at) / Fold change /veh TMEM51 (11727254_a_at) / RFU PIWIL2 (11732686_x_at) / Fold change /veh PIWIL2 (11732686_x_at) / RFU ORM1 (11744905_x_at) / Fold change /veh ORM1 (11744905_x_at) / RFU CCDC152 (11743942_at) / Fold change /veh CCDC152 (11743942_at) / RFU ECM1 (11717891_a_at) / Fold change /veh ECM1 (11717891_a_at) / RFU IL23R (11748794_a_at) / Fold change /veh IL23R (11748794_a_at) / RFU TNFAIP8L3 (11732012_x_at) / Fold change /veh TNFAIP8L3 (11732012_x_at) / RFU MBOAT4 (11741988_at) / Fold change /veh MBOAT4 (11741988_at) / RFU 11764193_at / Fold change /veh 11764193_at / RFU TMEM53 (11763286_at) / Fold change /veh TMEM53 (11763286_at) / RFU MAGEB2 (11727129_at) / Fold change /veh MAGEB2 (11727129_at) / RFU TMEM200A (11744735_a_at) / Fold change /veh TMEM200A (11744735_a_at) / RFU CCDC152 (11751479_a_at) / Fold change /veh CCDC152 (11751479_a_at) / RFU FAM211A (11726209_a_at) / Fold change /veh FAM211A (11726209_a_at) / RFU RGS16 (11746705_a_at) / Fold change /veh RGS16 (11746705_a_at) / RFU VCAN (11755009_s_at) / Fold change /veh VCAN (11755009_s_at) / RFU RHOB (11743442_s_at) / Fold change /veh RHOB (11743442_s_at) / RFU RGS16 (11720943_a_at) / Fold change /veh RGS16 (11720943_a_at) / RFU RGS16 (11720944_at) / Fold change /veh RGS16 (11720944_at) / RFU, VPS4B / Fold change vs veh, VPS4B / RFU, CREB1 / Fold change vs veh, CREB1 / RFU, DNAJC13 / Fold change vs veh, DNAJC13 / RFU, GNAQ / Fold change vs veh, GNAQ / RFU, CDK5R1 / Fold change vs veh, CDK5R1 / RFU, ZRANB3 / Fold change vs veh, ZRANB3 / RFU, CUL4A / Fold change vs veh, CUL4A / RFU, CCNY / Fold change vs veh, CCNY / RFU, UFL1 / Fold change vs veh, UFL1 / RFU, COG3 / Fold change vs veh, COG3 / RFU, DIAPH2 / Fold change vs veh, DIAPH2 / RFU, SKA2 / Fold change vs veh, SKA2 / RFU, AFF3 / Fold change vs veh, AFF3 / RFU, LMF1 / Fold change vs veh, LMF1 / RFU, IPO11 / Fold change vs veh, IPO11 / RFU, DFFB / Fold change vs veh, DFFB / RFU, FOXP1 / Fold change vs veh, FOXP1 / RFU, CARD8 / Fold change vs veh, CARD8 / RFU, STRN3 / Fold change vs veh, STRN3 / RFU, ADK / Fold change vs veh, ADK / RFU, RASSF2 / Fold change vs veh, RASSF2 / RFU, WIPF1 / Fold change vs veh, WIPF1 / RFU, LARP1B / Fold change vs veh, LARP1B / RFU, RASA1 / Fold change vs veh, RASA1 / RFU, RB1 / Fold change vs veh, RB1 / RFU, PPFIA1 / Fold change vs veh, PPFIA1 / RFU, MAT2A / Fold change vs veh, MAT2A / RFU, CCT5 / Fold change vs veh, CCT5 / RFU, WDR92 / Fold change vs veh, WDR92 / RFU, CUX1 / Fold change vs veh, CUX1 / RFU, TTC7A / Fold change vs veh, TTC7A / RFU, TMEM135 / Fold change vs veh, TMEM135 / RFU, DEPTOR / Fold change vs veh, DEPTOR / RFU, CPM / Fold change vs veh, CPM / RFU, DNAJB6 / Fold change vs veh, DNAJB6 / RFU, CACNA2D3 / Fold change vs veh, CACNA2D3 / RFU, DTX4 / Fold change vs veh, DTX4 / RFU, TFCP2 / Fold change vs veh, TFCP2 / RFU, GMCL1 /// GMCL1P1 / Fold change vs veh, GMCL1 /// GMCL1P1 / RFU, AEBP2 / Fold change vs veh, AEBP2 / RFU, SNHG1 /// SNORD22 /// SNORD25 /// SNORD26 /// SNORD27 /// SNORD28 /// SNORD29 /// SNORD31 / Fold change vs veh, SNHG1 /// SNORD22 /// SNORD25 /// SNORD26 /// SNORD27 /// SNORD28 /// SNORD29 /// SNORD31 / Fold change (Aza/veh), C12orf56 (ProbeSet 11735607_a_at) / Fold change (ACY-1035/veh), C12orf56 (ProbeSet 11735607_a_at) / Fold change (Aza/veh), FGFR1OP (ProbeSet 11751329_s_at) / Fold change (ACY-1035/veh), FGFR1OP (ProbeSet 11751329_s_at) / Fold change (Aza/veh), VPS36 (ProbeSet 11739960_a_at) / Fold change (ACY-1035/veh), VPS36 (ProbeSet 11739960_a_at) / RFU SYPL1 (11715823_x_at) / Fold change /veh SYPL1 (11715823_x_at) / RFU IGFBP7 (11715501_s_at) / Fold change /veh IGFBP7 (11715501_s_at) / RFU REEP3 (11722064_at) / Fold change /veh REEP3 (11722064_at) / RFU IGLL1 (11728026_x_at) / Fold change /veh IGLL1 (11728026_x_at): dose or concentration left out as unconfirmed
# Conditions: MV-4-11 cells, 48 hours
smiles,measurement,value
Nc1ccc(-c2cccs2)cc1NC(=O)c1ccc2c(c1)cc(C1CC1)n2CCN1CCOCC1 [ACY-1035],Fold change /veh RGS16 (11720944_at),0.97
